Test results from patent publication US20210254272A1, “TEXTILES HAVING ANTIMICROBIAL PROPERTIES” (Livinguard AG, priority 2015, published 2021).

What was measured:
[1] = Leaching test: 100 g fabric soaked in 10 liters stagnant distilled water, 3 days (72 hours); type: physicochemical; conditions: for Leaching of active ingredients / Leaching Test-Leaching of active ingredients: pad process; for Leaching of active ingredients: cured 180° C. 2 min; for Leaching Test-Leaching of active ingredients: 2 min
Summary of the method: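 Test and control fabrics were soaked together in a closed jar. Leached substances in the water were then determined by standard analytical methods.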

[2] = Leaching: 10 grams fabric in 100 milliliters distilled water, 7 days, GC-MS; type: physicochemical
Experimental: To test for a potential leaching of the antimicrobial agents fixed to the textile material, the following test was performed. A test fabric of polyester 65%/cotton 35% with 210 g/m2 was treated with polyhexamethylenebiguanide (PHMB) 0.5%, silver chloride 0.075%, octadecylaminomethyl trihydroxysilylpropyl ammonium chloride (organosilane) 0.4%, and propiconazole 0.5%
The treated textile material was put into distilled water at a ratio of 1:10. Specifically, a fabric of 10 grams was soaked in 100 milliliters of distilled water. The fabric was incubated in the water for 7 days at room temperature, i.e. between 21 and 25° C.
Following said incubation time, the fabric was removed from the water and the exposed water was tested for the presence of the above five active ingredients using gas chromatography-mass spectrometry (GC-MS).

CCCC1COC(Cn2cncn2)(c2ccc(Cl)cc2Cl)O1 (stereo not drawn) [Propiconazole, propiconazole]
Leaching of active ingredients (in ppm) ([1]; exhaust 80° C., 60 min, dosage 1% o.w.f (test up to 5% o.w.f)): 3 ppm
Leaching of active ingredients (in ppm) ([1]; exhaust 80° C., 60 min, dosage 2% o.w.f): 26 ppm
Leaching of active ingredients (in ppm) ([1]; exhaust 80° C., 60 min, dosage 3% o.w.f): 40 ppm
Leaching of active ingredients (in ppm) ([1]; exhaust 80° C., 60 min, dosage 4% o.w.f): 47 ppm
Leaching of active ingredients (in ppm) ([1]; exhaust 80° C., 60 min, dosage 5% o.w.f): 73 ppm
Leaching of active ingredients (in ppm) ([1]; exhaust 80 ° C., solution dosage 1% o.w.f, process time 10 min): 38 ppm
Leaching of active ingredients (in ppm) ([1]; exhaust 80 ° C., solution dosage 1% o.w.f, process time 20 min): 26 ppm
Leaching of active ingredients (in ppm) ([1]; exhaust 80 ° C., solution dosage 1% o.w.f, process time 30 min): 22 ppm
Leaching of active ingredients (in ppm) ([1]; exhaust 80 ° C., solution dosage 1% o.w.f, process time 40 min): 15 ppm
Leaching of active ingredients (in ppm) ([1]; exhaust 80 ° C., solution dosage 1% o.w.f, process time 50 min): 14 ppm
Leaching of active ingredients (in ppm) ([1]; exhaust 80 ° C., solution dosage 1% o.w.f, process time 55 min): 7 ppm
Leaching of active ingredients (in ppm) ([1]; exhaust 80 ° C., solution dosage 1% o.w.f, process time 60 min): 3 ppm
Leaching of active ingredients (in ppm) ([1]; exhaust 80 ° C., solution dosage 1% o.w.f, process time 70 min): 3 ppm
Leaching of active ingredients (in ppm) ([1]; exhaust 80 ° C., solution dosage 1% o.w.f, process time 80 min): 4 ppm
Leaching of active ingredients (in ppm) ([1]; exhaust 80 ° C., solution dosage 1% o.w.f, process time 90 min): 7 ppm
limit on the quantity of the agent that can be adhered to the textile in a non-leaching or substantially non-leaching manner ([1]; from Experimental examples I.1 and I.4): about 0.25 % o.w.f.
Leaching of active ingredients ([1]; mixture 1 gm/lit each): 9 ppm
Leaching of active ingredients ([1]; mixture 1 gm/lit each, after Washing): 0.4 ppm
Leaching of active ingredients ([1]; mixture 5 gm/lit each): 13 ppm
Leaching of active ingredients ([1]; mixture 5 gm/lit each, after Washing): 0.7 ppm
Leaching of active ingredients ([1]; mixture 10 gm/lit each): 24 ppm
Leaching of active ingredients ([1]; mixture 10 gm/lit each, after Washing): 0.9 ppm
Leaching Test-Leaching of active ingredients ([1]; single agent 5 gm/lit, curing 120° C.): 9 ppm
Leaching Test-Leaching of active ingredients ([1]; single agent 5 gm/lit, curing 140° C.): 7 ppm
Leaching Test-Leaching of active ingredients ([1]; single agent 5 gm/lit, curing 150° C.): 5 ppm
Leaching Test-Leaching of active ingredients ([1]; single agent 5 gm/lit, curing 160° C.): 4 ppm
Leaching Test-Leaching of active ingredients ([1]; single agent 5 gm/lit, curing 180° C.): 1 ppm
Leaching Test-Leaching of active ingredients ([1]; single agent 10 gm/lit, curing 120° C.): 15 ppm
Leaching Test-Leaching of active ingredients ([1]; single agent 10 gm/lit, curing 140° C.): 14 ppm
Leaching Test-Leaching of active ingredients ([1]; single agent 10 gm/lit, curing 150° C.): 13 ppm
Leaching Test-Leaching of active ingredients ([1]; single agent 10 gm/lit, curing 160° C.): 8 ppm
Leaching Test-Leaching of active ingredients ([1]; single agent 10 gm/lit, curing 180° C.): 2 ppm
Leaching of active ingredient (in ppm) ([1]; solution dosage 0.10% o.w.f, exhaust temperature 40° C., process time 60 min): 0 ppm
Leaching of active ingredient (in ppm) ([1]; solution dosage 0.10% o.w.f, exhaust temperature 60° C., process time 60 min): 0 ppm
Leaching of active ingredient (in ppm) ([1]; solution dosage 0.10% o.w.f, exhaust temperature 65° C., process time 60 min): 0 ppm
Leaching of active ingredient (in ppm) ([1]; solution dosage 0.10% o.w.f, exhaust temperature 70° C., process time 60 min): 0 ppm
Leaching of active ingredient (in ppm) ([1]; solution dosage 0.10% o.w.f, exhaust temperature 75° C., process time 60 min): 0 ppm
Leaching of active ingredient (in ppm) ([1]; solution dosage 0.10% o.w.f, exhaust temperature 80° C., process time 60 min): 0 ppm
Leaching of active ingredient (in ppm) ([1]; solution dosage 0.10% o.w.f, exhaust temperature 85° C., process time 60 min): 1 ppm
Leaching of active ingredient (in ppm) ([1]; solution dosage 0.10% o.w.f, exhaust temperature 90° C., process time 60 min): 2 ppm
Leaching of active ingredient (in ppm) ([1]; solution dosage 0.10% o.w.f, exhaust temperature 95° C., process time 60 min): 3 ppm
Leaching of active ingredient (in ppm) ([1]; solution dosage 0.20% o.w.f, exhaust temperature 40° C., process time 60 min): 0 ppm
Leaching of active ingredient (in ppm) ([1]; solution dosage 0.20% o.w.f, exhaust temperature 60° C., process time 60 min): 0 ppm
Leaching of active ingredient (in ppm) ([1]; solution dosage 0.20% o.w.f, exhaust temperature 65° C., process time 60 min): 0 ppm
Leaching of active ingredient (in ppm) ([1]; solution dosage 0.20% o.w.f, exhaust temperature 70° C., process time 60 min): 0 ppm
Leaching of active ingredient (in ppm) ([1]; solution dosage 0.20% o.w.f, exhaust temperature 75° C., process time 60 min): 0 ppm
Leaching of active ingredient (in ppm) ([1]; solution dosage 0.20% o.w.f, exhaust temperature 80° C., process time 60 min): 0 ppm
Leaching of active ingredient (in ppm) ([1]; solution dosage 0.20% o.w.f, exhaust temperature 85° C., process time 60 min): 2 ppm
Leaching of active ingredient (in ppm) ([1]; solution dosage 0.20% o.w.f, exhaust temperature 90° C., process time 60 min): 4 ppm
Leaching of active ingredient (in ppm) ([1]; solution dosage 0.20% o.w.f, exhaust temperature 95° C., process time 60 min): 4 ppm
Leaching of active ingredient (in ppm) ([1]; solution dosage 0.50% o.w.f, exhaust temperature 40° C., process time 60 min): 0 ppm
Leaching of active ingredient (in ppm) ([1]; solution dosage 0.50% o.w.f, exhaust temperature 60° C., process time 60 min): 1 ppm
Leaching of active ingredient (in ppm) ([1]; solution dosage 0.50% o.w.f, exhaust temperature 65° C., process time 60 min): 1 ppm
Leaching of active ingredient (in ppm) ([1]; solution dosage 0.50% o.w.f, exhaust temperature 70° C., process time 60 min): 1 ppm
Leaching of active ingredient (in ppm) ([1]; solution dosage 0.50% o.w.f, exhaust temperature 75° C., process time 60 min): 1 ppm
Leaching of active ingredient (in ppm) ([1]; solution dosage 0.50% o.w.f, exhaust temperature 80° C., process time 60 min): 1 ppm
Leaching of active ingredient (in ppm) ([1]; solution dosage 0.50% o.w.f, exhaust temperature 85° C., process time 60 min): 3 ppm
Leaching of active ingredient (in ppm) ([1]; solution dosage 0.50% o.w.f, exhaust temperature 90° C., process time 60 min): 5 ppm
Leaching of active ingredient (in ppm) ([1]; solution dosage 0.50% o.w.f, exhaust temperature 95° C., process time 60 min): 6 ppm
Leaching of active ingredient (in ppm) ([1]; solution dosage 0.80% o.w.f, exhaust temperature 40° C., process time 60 min): 0 ppm
Leaching of active ingredient (in ppm) ([1]; solution dosage 0.80% o.w.f, exhaust temperature 60° C., process time 60 min): 2 ppm
Leaching of active ingredient (in ppm) ([1]; solution dosage 0.80% o.w.f, exhaust temperature 65° C., process time 60 min): 1 ppm
Leaching of active ingredient (in ppm) ([1]; solution dosage 0.80% o.w.f, exhaust temperature 70° C., process time 60 min): 2 ppm
Leaching of active ingredient (in ppm) ([1]; solution dosage 0.80% o.w.f, exhaust temperature 75° C., process time 60 min): 2 ppm
Leaching of active ingredient (in ppm) ([1]; solution dosage 0.80% o.w.f, exhaust temperature 80° C., process time 60 min): 1 ppm
Leaching of active ingredient (in ppm) ([1]; solution dosage 0.80% o.w.f, exhaust temperature 85° C., process time 60 min): 4 ppm
Leaching of active ingredient (in ppm) ([1]; solution dosage 0.80% o.w.f, exhaust temperature 90° C., process time 60 min): 6 ppm
Leaching of active ingredient (in ppm) ([1]; solution dosage 0.80% o.w.f, exhaust temperature 95° C., process time 60 min): 7 ppm
Leaching of active ingredient (in ppm) ([1]; solution dosage 1.00% o.w.f, exhaust temperature 40° C., process time 60 min): 0 ppm
Leaching of active ingredient (in ppm) ([1]; solution dosage 1.00% o.w.f, exhaust temperature 60° C., process time 60 min): 8 ppm
Leaching of active ingredient (in ppm) ([1]; solution dosage 1.00% o.w.f, exhaust temperature 65° C., process time 60 min): 7 ppm
Leaching of active ingredient (in ppm) ([1]; solution dosage 1.00% o.w.f, exhaust temperature 70° C., process time 60 min): 4 ppm
Leaching of active ingredient (in ppm) ([1]; solution dosage 1.00% o.w.f, exhaust temperature 75° C., process time 60 min): 3 ppm
Leaching of active ingredient (in ppm) ([1]; solution dosage 1.00% o.w.f, exhaust temperature 80° C., process time 60 min): 1.5 ppm
Leaching of active ingredient (in ppm) ([1]; solution dosage 1.00% o.w.f, exhaust temperature 85° C., process time 60 min): 8 ppm
Leaching of active ingredient (in ppm) ([1]; solution dosage 1.00% o.w.f, exhaust temperature 90° C., process time 60 min): 9 ppm
Leaching of active ingredient (in ppm) ([1]; solution dosage 1.00% o.w.f, exhaust temperature 95° C., process time 60 min): 9 ppm
Extracted water Conc, ppm [2]: BDL (BDL-below detection limit Detection limit: 1 parts per million (ppm))
